Reference: patent EP4663204A1, “COMPOUNDS USEFUL FOR THE MODULATION OF THE ACTIVITY OF STING” (Sulis Therapeutics ApS, priority 2024, dated 2025)
“Also recorded” adds a separate entry of the source.

Legend:
STING [1] = biological target: T1, STING (Homo sapiens, UniProt Q86WV6); experiment: Western Blot analysis for STING degradation in H596, H1650 and HaCat cells; type: cell-based; settings: 0.22 µM, 0.67 µM, 2 µM and 6 µM, 24h, Figure 4
Experimental: To assess STING degradation in H596 cells (ATCC, HTB-178) cells were seeded at a density of 100.000 cells/well in 24-well Nunclon Delta surface treated culture plate in RPMI-1640 growth medium (supplemented with 10% FBS, 1% Pen-strep). Cells were incubated over-night at 37°C 5% CO2 to allow adhesion. Next day growth medium was renewed and a 5x concentration of test compounds (2.5% DMSO) diluted in growth medium were added to the appropriate well. Final DMSO concentration was 0.5%. Cell culture plates were returned to the incubator for additional 24h. The same protocols were used to grow H1650 and HaCat cells except that cells were seeded at a density of 150,000 cells/well and 250,000 cells/well, respectively
Final test compound concentrations were 0.22 µM, 0.67 µM, 2 µM and 6 µM.
For cell lysis, western blotting and data analysis, the following methods were applied.
For cell lysing for Western Blot analysis cell culture plates were brought to ice, supernatant was removed by aspiration and cells washed 2x in ice-cold DPBS. […] Samples were either analysed directly or stored at -80°C until analysis.
For Western Blotting, total protein concentration in each lysate was determined using PIERCE Gold BCA Assay kit according to manufactures protocol. […]

[2] = test system: CXCL10, IL-6, MCP-1 (CCL2), MIP-1α (CCL3) and IFN-γ; experiment: Serum cytokine and chemokine levels in mice, with or without LPS (V-Plex immunoassay); type: in vivo; settings: compound followed by LPS 16 hours later
Experimental: A compound of the invention (Example compound 12; "Ex 12"), or a control S1-L-E compound (control Example compound 7; "Ex 7"), were administered to subjects following the in vivo protocol of Example 1. 16 hours after that administration, some subjects were administered lipopolysaccharide (LPS).
In subjects that received LPS alone, serum levels of CXCL10, IL-6, MCP-1 (CCL2) and MIP-1α (CCL3) were raised 100-1000 fold above the levels in control subjects that received vehicle alone. (In both cases, IFN-γ levels were below the 10 pg/mL threshold of detection.) In subjects that received the compound of the invention, followed by LPS 16 hours later, CXCL10, IL-6, MCP-1 (CCL2) and MIP-1α (CCL3) levels were a further ten-fold higher than the levels in subjects that received LPS alone (see Figure 2). […] IFN-γ levels were only detectable in subjects that had been administered the compound of the invention, with LPS treatment after 16 hours resulting in a further elevation in IFN-γ levels to a small extent. Quantification of cytokines and chemokines was performed on individual serum samples that were stored frozen (≤ -20 °C) after collection, using the electrochemiluminescence-based immunoassay and a custom mouse 5-plex panel according to the manufacturer's instructions (V-Plex assay, Mesoscale Discovery, USA).

[3] = Pharmacokinetic profiling in mouse; type: in vivo; settings: plasma, sc, mice, subcutaneous injection (8 mg/kg stated for Example compound 12), 8 hours after injection
Experimental: Mice were administered with 8 mg/kg Example compound 12 by subcutaneous injection. Plasma concentration of test compound was measured over the course of 8 hours.

[4] = biological target: T2, constitutively active STING (comprising a N154S mutation) (Homo sapiens, UniProt Q86WV6, N154S); experiment: Western Blot analysis for STING degradation in SAVI patient primary fibroblast cells; type: cell-based; settings: SAVI patient fibroblasts (N154S); 1 µM; 20 hours; Figure 7
T2 construct: primary fibroblast cells with constitutively active STING (comprising a N154S mutation), derived from SAVI patients; endogenous in cells; host or cells: SAVI patient primary fibroblasts
T2 sequence (Q86WV6 whole entry N154S): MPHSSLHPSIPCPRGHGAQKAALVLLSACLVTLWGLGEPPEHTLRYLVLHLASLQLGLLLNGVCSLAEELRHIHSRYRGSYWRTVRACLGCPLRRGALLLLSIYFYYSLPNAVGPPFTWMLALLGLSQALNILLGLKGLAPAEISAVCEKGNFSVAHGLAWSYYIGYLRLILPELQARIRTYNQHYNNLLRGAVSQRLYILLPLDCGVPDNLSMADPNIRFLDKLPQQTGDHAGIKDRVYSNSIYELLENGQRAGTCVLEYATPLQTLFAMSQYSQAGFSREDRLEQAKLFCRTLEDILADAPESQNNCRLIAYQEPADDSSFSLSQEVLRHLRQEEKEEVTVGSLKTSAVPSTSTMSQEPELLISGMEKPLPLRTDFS
Experimental: (§1) For this study, STING degradation was assessed in primary fibroblast cells with constitutively active STING (comprising a N154S mutation), derived from SAVI patients, and compared to healthy donor primary fibroblast cells.
(§2) Cells were seeded at 50,000 cells/well and cultured under standard conditions for 24 hours. Media was replaced with test compound and incubated for 20 hours prior to analysis.
(§3) Cell culture medium was replaced with fresh medium containing 1 µM Example compound and incubated for 20 hours. For cell lysis and western blotting, the methods described above for HFF-1 cells were applied.

wild-type STING = biological target: T3, wild-type STING (Homo sapiens, UniProt Q86WV6); experiment: Western Blot analysis for STING degradation in healthy donor primary fibroblast cells; type: cell-based; settings: healthy donor fibroblasts; 1 µM; 20 hours; Figure 7
T3 construct: compared to healthy donor primary fibroblast cells; endogenous in cells; host or cells: healthy donor primary fibroblasts
T3 sequence (Q86WV6 whole entry): as the sequence (Q86WV6 whole entry N154S) above, with S154N counted along it
Experimental: as §1, §2, §3

STING [5] = biological target: T1, STING; experiment: Western Blot analysis for STING recovery following compound washout in HFF-1 cells; type: cell-based; parameters: To assess STING degradation and recovery in human foreskin fibroblasts HFF-1 cells; host or cells: HFF-1 human foreskin fibroblasts; settings: 24 hours treatment, 48 hours after washout, Figure 6
Experimental: To assess STING degradation and recovery in human foreskin fibroblasts HFF-1 cells (ATCC, SCRC-1041) cells were seeded at a density of 60.000 cells/well in 24-well Nunclon Delta surface treated culture plate in DMEM growth medium (supplemented with 10% FBS, 1% Pen-strep). Cells were incubated over-night at 37°C 5% CO2 to allow adhesion. Next day growth medium was renewed and a 5x concentration of test compounds (2.5% DMSO) diluted in growth medium were added to the appropriate well. The final DMSO concentration were 0.5%. Cell culture plates were returned to the incubator for additional 24h.
Methods as described above for H596, H1650 and HaCat cells were applied for cell lysis and western blotting. Following 24 hours incubation with the test compounds, cell culture medium containing Example compound was removed, cells washed with fresh medium without Example compound, and incubated in fresh medium without Example compound for the indicated time.

T1 sequence (Q86WV6 whole entry): as the sequence (Q86WV6 whole entry N154S) above, with S154N counted along it

| SMILES | STING degradation (STING [1]) | CXCL10, IL-6, MCP-1 (CCL2) and MIP-1α (CCL3) levels relative to subjects that received LPS alone [2] | concentration at 8 h [3] [nM] | STING degradation [4] | STING degradation (wild-type STING) | STING protein recovery after washout (STING [5]) |
| --- | --- | --- | --- | --- | --- | --- |
| CCn1nc(C)cc1C(=O)N=c1n(C)c2cc(C(N)=O)ccc2n1CCC(CCn1c(=NC(=O)c2cc(C)nn2CC)n(C)c2cc(C(N)=O)ccc21)OCC(=O)NCCOCCOCCOCCOCCC(=O)NCCOCCOCCOCCOCC(=O)N[C@H](C(=O)N1C[C@H](O)C[C@H]1C(=O)NCc1ccc(-c2scnc2C)cc1)C(C)(C)C (stereo partly shown) [Example compound 6] | induction of STING degradation; also recorded: induces visible degradation in H1650 and H596 at higher concentrations |  |  |  |  |  |
| CCn1nc(C)cc1C(=O)N=c1n(C)c2cc(C(N)=O)ccc2n1CCC(CCn1c(=NC(=O)c2cc(C)nn2CC)n(C)c2cc(C(N)=O)ccc21)OCC(=O)NCCOCCOCCOCCOCCC(=O)NCCOCCOCCOCCOCCNc1cccc2c1C(=O)N(C1CCC(=O)NC1=O)C2=O (stereo not shown) [Example compound 7] | induction of STING degradation; also recorded: induce STING degradation in all cell lines tested at all concentrations tested | only further elevated to a small extent | ~100 | induce STING degradation | induce STING degradation | fail to recover to pre-treatment levels |
